Several values for one entry are separate records, joined by “and”; a condition that tells them apart may be missing. Equal values may be shown once. Read-outs that look alike come from different tables or passages of the source.
Experiment: Distribution of C1 in tissues
Type: in vivo, Wistar rats
Details: p.o. 75 mg/kg, 75 mg/kg; for concentration at 10 min / concentration at 30 min / concentration at 90 min / concentration at 3 h / concentration at 6 h: male, Wistar, rat, po
Description: Fifteen male Wistar rats were distributed in five groups (n = 3) and rats were orally administered C1 at a single dose of 75 mg/kg. Subsequently, a group of animals was sacrificed (n = 3) at 10, 30, 90, 180, and 360 min. […] All tissues and organs were weighed on an analytical balance and immediately processed. Each tissue sample was homogenized with saline solution in a 1:3 (wt/v) ratio. The preparation process for analysis was the same as described above for plasma samples [57] (File S8).

[1] = Small intestine, individual rats

O=C(/C=C(/Br)C(=O)O)Nc1ccc(O)c(C(=O)O)c1 [Compound C1, 5-{[(2E)-3-bromo-3-carboxyprop-2-enoyl]amino}-2-hydroxybenzoic acid]
Concentration (µg/mL) at 30 minutes, Rat 1-3 (Brain, individual rats): 4.1 µg/mL and 3.2 µg/mL | Concentration (µg/mL) at 90 minutes, Rat 1-3 (Brain, individual rats): 3.3 µg/mL and 3.8 µg/mL | Concentration (µg/mL) at 3 h, Rat 1-3 (Brain, individual rats): 1.9 µg/mL and 3.2 µg/mL | Concentration (µg/mL) at 6 h, Rat 1-3 (Brain, individual rats): 3.0 µg/mL | Concentration (µg/mL) at 10 minutes, Rat 1-3 (Colon, individual rats): 7.5 µg/mL and 9.4 µg/mL | Concentration (µg/mL) at 30 minutes, Rat 1-3 (Colon, individual rats): 10.6 µg/mL and 8.5 µg/mL and 3.9 µg/mL | Concentration (µg/mL) at 90 minutes, Rat 1-3 (Colon, individual rats): 7.9 µg/mL and 6.8 µg/mL | Concentration (µg/mL) at 3 h, Rat 1-3 (Colon, individual rats): 3.6 µg/mL and 6.1 µg/mL and 7.5 µg/mL | Concentration (µg/mL) at 10 minutes, Rat 1-3 (Hearth, individual rats): 8.0 µg/mL and 1.3 µg/mL and 12.4 µg/mL | Concentration (µg/mL) at 30 minutes, Rat 1-3 (Hearth, individual rats): 4.4 µg/mL and 2.6 µg/mL | Concentration (µg/mL) at 90 minutes, Rat 1-3 (Hearth, individual rats): 3.9 µg/mL and 3.0 µg/mL | Concentration (µg/mL) at 3 h, Rat 1-3 (Hearth, individual rats): 2.2 µg/mL and 4.0 µg/mL | Concentration (µg/mL) at 10 minutes, Rat 1-3 (Kidney, individual rats): 14.1 µg/mL and 11.2 µg/mL and 22.6 µg/mL | Concentration (µg/mL) at 30 minutes, Rat 1-3 (Kidney, individual rats): 9.1 µg/mL and 5.4 µg/mL | Concentration (µg/mL) at 90 minutes, Rat 1-3 (Kidney, individual rats): 6.1 µg/mL and 4.7 µg/mL | Concentration (µg/mL) at 3 h, Rat 1-3 (Kidney, individual rats): 4.2 µg/mL and 3.3 µg/mL and 6.8 µg/mL | Concentration (µg/mL) at 10 minutes, Rat 1-3 (Liver, individual rats): 5.1 µg/mL and 4.4 µg/mL | Concentration (µg/mL) at 30 minutes, Rat 1-3 (Liver, individual rats): 7.2 µg/mL and 6.4 µg/mL | Concentration (µg/mL) at 90 minutes, Rat 1-3 (Liver, individual rats): 2.6 µg/mL and 5.6 µg/mL and 5.1 µg/mL | Concentration (µg/mL) at 3 h, Rat 1-3 (Liver, individual rats): 5.0 µg/mL and 2.6 µg/mL and 7.0 µg/mL | Concentration (µg/mL) at 10 minutes, Rat 1-3 (Lung, individual rats): 23.3 µg/mL and 6.2 µg/mL and 17.7 µg/mL | Concentration (µg/mL) at 30 minutes, Rat 1-3 (Lung, individual rats): 14.6 µg/mL and 6.7 µg/mL and 10.9 µg/mL | Concentration (µg/mL) at 90 minutes, Rat 1-3 (Lung, individual rats): 4.0 µg/mL and 13.3 µg/mL and 4.8 µg/mL | Concentration (µg/mL) at 3 h, Rat 1-3 (Lung, individual rats): 3.9 µg/mL and 7.9 µg/mL and 10.0 µg/mL | Concentration (µg/mL) at 30 minutes, Rat 1-3 (Muscle, individual rats): 4.0 µg/mL | Concentration (µg/mL) at 90 minutes, Rat 1-3 (Muscle, individual rats): 3.3 µg/mL and 3.6 µg/mL | Concentration (µg/mL) at 3 h, Rat 1-3 (Muscle, individual rats): 2.4 µg/mL and 2.6 µg/mL | Concentration (µg/mL) at 30 minutes, Rat 1-3 [1]: 18.3 µg/mL and 23.9 µg/mL and 4.9 µg/mL | Concentration (µg/mL) at 90 minutes, Rat 1-3 [1]: 14.1 µg/mL and 18.2 µg/mL | Concentration (µg/mL) at 3 h, Rat 1-3 [1]: 15.4 µg/mL and 14.9 µg/mL | Concentration (µg/mL) at 10 minutes, Rat 1-3 (Spleen, individual rats): 22.6 µg/mL and 42.7 µg/mL | Concentration (µg/mL) at 30 minutes, Rat 1-3 (Spleen, individual rats): 15.6 µg/mL and 15.0 µg/mL | Concentration (µg/mL) at 90 minutes, Rat 1-3 (Spleen, individual rats): 5.5 µg/mL and 17.1 µg/mL and 12.4 µg/mL | Concentration (µg/mL) at 3 h, Rat 1-3 (Spleen, individual rats): 10.4 µg/mL and 4.7 µg/mL and 11.1 µg/mL | Concentration (µg/mL) at 10 minutes, Rat 1-3 (Stomach, individual rats): 24.1 µg/mL and 10.3 µg/mL and 20.5 µg/mL | Concentration (µg/mL) at 30 minutes, Rat 1-3 (Stomach, individual rats): 13.0 µg/mL and 11.8 µg/mL and 5.8 µg/mL | Concentration (µg/mL) at 90 minutes, Rat 1-3 (Stomach, individual rats): 10.4 µg/mL and 8.4 µg/mL and 4.8 µg/mL | Concentration (µg/mL) at 3 h, Rat 1-3 (Stomach, individual rats): 3.7 µg/mL and 8.5 µg/mL and 7.1 µg/mL | Concentration (µg/mL) at 30 minutes, Rat 1-3 (Testis, individual rats): 4.8 µg/mL and 2.4 µg/mL | Concentration (µg/mL) at 90 minutes, Rat 1-3 (Testis, individual rats): 2.7 µg/mL and 5.8 µg/mL and 3.5 µg/mL | Concentration (µg/mL) at 3 h, Rat 1-3 (Testis, individual rats): 2.8 µg/mL and 3.2 µg/mL | concentration at 10 min (brain, Brain, 10 min, n = 3, read-out: Average Concentration): 3.7 µg/mL | concentration at 30 min (brain, Brain, 30 min, n = 3, read-out: Average Concentration): 3.5 µg/mL | concentration at 90 min (brain, Brain, 90 min, n = 3, read-out: Average Concentration): 3.4 µg/mL | concentration at 3 h (brain, Brain, 3 h, n = 3, read-out: Average Concentration): 2.8 µg/mL | concentration at 6 h (brain, Brain, 6 h, n = 3, read-out: Average Concentration): 2.5 µg/mL | concentration at 10 min (brain, Brain, individual rats, read-out: Concentration (µg/mL) at 10 minutes, Rat 1-3): 4.1 µg/mL | concentration at 30 min (brain, Brain, individual rats, read-out: Concentration (µg/mL) at 30 minutes, Rat 1-3): 3.2 µg/mL | concentration at 90 min (brain, Brain, individual rats, read-out: Concentration (µg/mL) at 90 minutes, Rat 1-3): 3.1 µg/mL | concentration at 3 h (brain, Brain, individual rats, read-out: Concentration (µg/mL) at 3 h, Rat 1-3): 3.2 µg/mL | concentration at 6 h (brain, Brain, individual rats, read-out: Concentration (µg/mL) at 6 h, Rat 1-3): 2.2 µg/mL | concentration at 10 min (colon, Colon, 10 min, n = 3, read-out: Average Concentration): 10.3 µg/mL | concentration at 30 min (colon, Colon, 30 min, n = 3, read-out: Average Concentration): 7.6 µg/mL | concentration at 90 min (colon, Colon, 90 min, n = 3, read-out: Average Concentration): 6.3 µg/mL | concentration at 3 h (colon, Colon, 3 h, n = 3, read-out: Average Concentration): 5.7 µg/mL | concentration at 6 h (colon, Colon, 6 h, n = 3, read-out: Average Concentration): 6 µg/mL | concentration at 10 min (colon, Colon, individual rats, read-out: Concentration (µg/mL) at 10 minutes, Rat 1-3): 14.2 µg/mL | concentration at 90 min (colon, Colon, individual rats, read-out: Concentration (µg/mL) at 90 minutes, Rat 1-3): 4.2 µg/mL | concentration at 10 min (heart, Hearth, 10 min, n = 3, read-out: Average Concentration): 7.2 µg/mL | concentration at 30 min (heart, Hearth, 30 min, n = 3, read-out: Average Concentration): 3.6 µg/mL | concentration at 90 min (heart, Hearth, 90 min, n = 3, read-out: Average Concentration): 3.2 µg/mL | concentration at 3 h (heart, Hearth, 3 h, n = 3, read-out: Average Concentration): 2.9 µg/mL | concentration at 6 h (heart, Hearth, 6 h, n = 3, read-out: Average Concentration): 2.7 µg/mL | concentration at 30 min (heart, Hearth, individual rats, read-out: Concentration (µg/mL) at 30 minutes, Rat 1-3): 3.8 µg/mL | concentration at 90 min (heart, Hearth, individual rats, read-out: Concentration (µg/mL) at 90 minutes, Rat 1-3): 2.7 µg/mL | concentration at 3 h (heart, Hearth, individual rats, read-out: Concentration (µg/mL) at 3 h, Rat 1-3): 2.5 µg/mL

From paper PMC8617944, “Preclinical Pharmacokinetics and Acute Toxicity in Rats of 5-{[(2E)-3-Bromo-3-carboxyprop-2-enoyl]amino}-2-hydroxybenzoic Acid: A Novel 5-Aminosalicylic Acid Derivative with Potent Anti-Inflammatory Activity” (Molecules, 2021)
